# Data from US20260200849A1, “CATIONIC LIPIDS AND PREPARATION METHOD THEREOF” (RiboX Therapeutics HK Limited, priority 2024, published 2026).
# Values joined by “and” are separate entries in the source; they are usually repeats but may differ in a detail not shown here. Identical values can stand only once.
# Columns and labels:
# [1] = LNP size and polydispersity index (PDI) by dynamic light scattering (Zetasizer); assay type: physicochemical; conditions: for Size (nm): RNA No. 331
# Method: (§1) The LNP size and polydispersity index (PDI), determined by dynamic light scattering (DLS), and zeta potential were measured by a Zetasizer machine (Malvern). RNA concentration and encapsulation efficacy (EE %) were analyzed by the Quant-IT Ribogreen kit by calculating the percentage encapsulation at 100%—(RNA-LNPs/RNA-LNPs with Triton X-100).
# [2] = RNA encapsulation efficacy (EE %) by Quant-IT Ribogreen kit; assay type: physicochemical; conditions: LNP
# Method: as §1
# Hep G2 cells [3] = assay: In vitro expression: luciferase activity in Hep G2 cells transfected with RNA-LNPs; assay type: cell-based; conditions: 100 ng/mL RNA-LNPs, 72 hours post transfection
# Method: 2E5 Hep G2 cells were transfected with 100 ng/mL of RNA-LNPs encoding for firefly-luciferase. At 72 hours post transfection, the cells were washed and lysed. The luciferase expression (2-well repeat) was determined in the cell lysates with the luciferase assay reagent kit (Promega), according to the kit protocol, luciferase activity was measured by a luminometer.
# Hep G2 cells [4] = assay: In vitro toxicity: Hep G2 cell viability by CellTiter-Glo; assay type: cell-based; conditions: 72 hours post transfection, cell only = 100%
# Method: 2E5 Hep G2 cells were transfected with 1 μg/mL RNA-LNPs. At 72 hours post transfection, cell viability (2-well repeat) was determined with the CellTiter-Glo® reagent kit, according to the kit protocol, measured by a luminometer. Cell only as control (100%).
# The cell viability was calculated according to the following formula: […]
# Balb/c mice = assay: In vivo expression by IV, 0.05 mg/kg luciferase RNA-LNPs, IVIS luminescence; conditions: female Balb/c mice, 0.05 mg*kg−1 intravenous; for Whole body at 24 h (p/s) (Mean) / Whole body at 72 h (p/s) (Mean): Formulation No. 010, RNA No. 331; for Whole body at 24 h (p/s) (Mean): 24 hours post injection; for Whole body at 72 h (p/s) (Mean): 72 hours post injection
# Summary of the method: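 IVIS bioluminescence was read after IP luciferin (15 mg/ml): whole-body at 24 and 72 h, or whole-body/liver/spleen at 24 h. Dosing was a single IV injection of 0.05 mg*kg−1 RNA-LNPs encoding firefly luciferase into 7-8 week old female Balb/c mice, N=3.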
# C57BL/6J mice [5] = assay: In vivo expression by ID, whole-body/injection site skin/lymph node luminescence; conditions: intradermal 0.15 mg/kg, 72 h post injection, female C57BL/6J mice N=3, Formulation 001, RNA 331
# Method: 7-8 week old, female C57BL/6J mice (N=3) were injected with 0.15 mg*kg−1 of RNA-LNPs encoding for firefly-luciferase by intradermal injection. At 72-hours post injection, animals were intraperitoneally injected with 15 mg/mi of Luciferin substrate and whole-body/injection site skin/lymph node luminescence were determined by a bioluminescent in vivo imaging system (IVIS).
# injection site skin = assay: In vivo tolerability after intradermal injection: H&E staining of injection site skin; design: species or system C57BL/6J mice; key to Infiltration, mononuclear cells, dermis/subcutaneous, focal, Grade / Edema, subcutaneous, focal, Grade / Erosion, focal, Grade / Skin, Grade: 1==minimal; 2=mild; 3=moderate; 4=marked; 5=severe; N=Normal; NA=Not applicable; —=No data; conditions: intradermal 0.15 mg/kg, 72 h, Formulation 001, RNA 331; for Total score: sum of lesion grades of the group (N=3)
# Method: 7-8 week old, female C57BL/6J mice (N=3) were injected with 0.15 mg*kg−1 of RNA-LNIPs encoding for firefly-luciferase by intradermal injection. At 72-hours post injection, injection site skin from each animal was collected in 10% formalin, for H&E staining. PBS group (N=2) as control. (Note: 1==minimal, 2=mild, 3=moderate, 4=marked, 5=severe; N=Normal; NA=Not applicable; —=No data)
# MCP-1 = assay: In vivo tolerability by IM: serum MCP-1 by Luminex; conditions: IM 1.0 mg/kg, male C57BL/6J mice N=3, Formulation 001, RNA 331
# Method: (§2) 6-8 week old, male C57BL/6J mice (N=3) were injected with 1.0 mg*kg−1 of RNA-LNPs encoding for firefly-luciferase by intramuscular injection. At 2- and 24-hours post injection, about 40 μL blood was harvested and immediately added to the procoagulant containing tube. Stand for 30 min at room temperature and then centrifuged at 2500 g×10 min to obtain serum. About 15 μL serum samples were aliquoted for cytokine (MCP-1 and IL-6) detection by Luminex (ProcartaPlex Mouse 2-plex, Thermo). PBS group as negative control.
# IL-6 = assay: In vivo tolerability by IM: serum IL-6 by Luminex; conditions: IM 1.0 mg/kg, male C57BL/6J mice N=3, Formulation 001, RNA 331
# Method: as §2
# C57BL/6J mice [6] = assay: In vivo expression by IM, luciferase RNA-LNPs, whole-body/injection site muscle/organ luminescence; conditions: IM 1.0 mg/kg, 24 h post injection, male C57BL/6J mice N=3, Formulation 001, RNA 331
# Method: 6-8 week old, male C57BL/6J mice (N=3) were injected with 1.0 mg*kg−1 of RNA-LNPs encoding for firefly-luciferase by intramuscular injection. At 24-hours post injection, animals were intraperitoneally injected with 15 mg/ml of Luciferin substrate and whole-body/injection site muscle/liver/spleen/kidney/heart/lung luminescence were determined by a bioluminescent in vivo imaging system (IVIS).
# [7] = Formulation No. 001, RNA No. 019 (hEPO)
# [8] = Formulation No. 001, RNA No. 331
# [9] = Formulation No. 001, RNA No. 331, 24-hours post injection
# [10] = Formulation No. 010 (Ionizable lipid:DSPC:cholesterol:DSPE-PEG2000 = 38:30:30:2, N/P 6)
# [11] = Formulation No. 010, RNA No. 331
# [12] = Formulation No. 010, RNA No. 331 (firefly-luciferase)
# [13] = 1 μg/mL RNA-LNPs, Formulation 001, RNA 331
# [14] = Formulation No. 010, RNA No. 331, 1 μg/mL RNA-LNPs
Structure (SMILES),"PDI [1, 7]","Size [1, 7] [nm]","PDI [1, 8]","EE (%) [2, 7] [%]","EE (%) [2, 8] [%]","Size [1, 8] [nm]","Size (nm) [1, 10] [nm]","PDI [1, 11]","EE (%) [2, 11] [%]","In vitro Expression (Mean) (Hep G2 cells [3]; Formulation 001, RNA 331)",In vitro Expression (Mean) (Hep G2 cells [3]; [12]),In vitro cell viability (%) (Mean) (Hep G2 cells [4]; [13]),In vitro cell viability (%) (Mean) (Hep G2 cells [4]; [14]),Whole body at 24 h (p/s) (Mean) (Balb/c mice),Whole body at 72 h (p/s) (Mean) (Balb/c mice),Injection site Skin (p/s) (C57BL/6J mice [5]),Lymph node (p/s) (C57BL/6J mice [5]),Whole body (p/s) (C57BL/6J mice [5]),"Edema, subcutaneous, focal, Grade (injection site skin; per animal)","Erosion, focal, Grade (injection site skin; per animal)",further results
CCCCCCCCC(CCCCCC)C(=O)OCCCCCCCCOC(=O)NC(COC(=O)NCCN1CCCCC1)C(=O)OCCCCCCCCOC(=O)C(CCCCCC)CCCCCCCC (stereo not drawn) [Lipid 888],0.05,59.39,0.01,97.48,93.81,,,,,,,,,,,,,,,,"Size (nm) ([1]; Formulation No. 001 (Ionizable lipid:DSPC:cholesterol:DMG-PEG2000 = 50:10:38.5:1.5, N/P 6)): 62.46 nm; In vitro Expression (Mean) (Hep G2 cells [3]; Formulation No. 001, RNA No. 331 (firefly-luciferase)): 4.84E+05; In vitro cell viability (%) (Mean) (Hep G2 cells [4]; Formulation No. 001, RNA No. 331, 1 μg/mL RNA-LNPs): 89.73%; Liver (p/s) (Mean) (Balb/c mice; [9]): 2.18E+08 p/s; Spleen (p/s) (Mean) (Balb/c mice; [9]): 7.61E+07 p/s; Whole body (p/s) (Mean) (Balb/c mice; [9]): 1.35E+09 p/s"
CCCCCCCC/C=C\CCCCCCCC(=O)NC(COC(=O)NCCN1CCCCC1)C(=O)OCCCCCCCCOC(=O)C(CCCCCC)CCCCCCCC (stereo not drawn) [Lipid 700],0.06,68.99,0.06,96.00,94.45,62.57,55.29,0.07,96.73,7.16E+05,3.61E+05,78.82,99.10,3.40E+08,1.34E+08,1.75E+07,1.57E+06,8.00E+07,1 (2×) and 2,—,"Infiltration, mononuclear cells, dermis/subcutaneous, focal, Grade (injection site skin; per animal): 1; Total score (injection site skin): 7; MCP-1 at 2 h (MCP-1): 281 pg/mL; MCP-1 at 24 h (MCP-1): 3270 pg/mL; IL-6 at 2 h (IL-6): 15 pg/mL; IL-6 at 24 h (IL-6): 143 pg/mL; Heart (p/s) (C57BL/6J mice [6]): 1.79E+05 p/s; Injection site muscle (p/s) (C57BL/6J mice [6]): 3.07E+08 p/s; Kidney (p/s) (C57BL/6J mice [6]): 9.03E+05 p/s; Liver (p/s) (C57BL/6J mice [6]): 8.73E+07 p/s; Lung (p/s) (C57BL/6J mice [6]): 3.11E+05 p/s; Spleen (p/s) (C57BL/6J mice [6]): 1.21E+07 p/s; Whole body (p/s) (C57BL/6J mice [6]): 5.65E+08 p/s"
CCCCC/C=C\C/C=C\CCCCCCCC(=O)NC(COC(=O)NCCN1CCCCC1)C(=O)OCCCCCCCC(=O)OC(CCCCCCCC)CCCCCCCC (stereo not drawn) [Lipid 549],0.04,64.53,0.04,94.25,94.58,61.34,57.35,0.13,96.68,7.02E+05,5.75E+05,79.09,88.89,2.75E+08,7.85E+07,3.41E+06,3.17E+06,4.38E+07,— and 1 (2×),—,"Infiltration, mononuclear cells, dermis/subcutaneous, focal, Grade (injection site skin; per animal): — and 1 (2×); Skin, Grade (injection site skin; per animal): N; Total score (injection site skin): 4; MCP-1 at 2 h (MCP-1): 299 pg/mL; MCP-1 at 24 h (MCP-1): 3980 pg/mL; IL-6 at 2 h (IL-6): 27 pg/mL; IL-6 at 24 h (IL-6): 146 pg/mL; Heart (p/s) (C57BL/6J mice [6]): 8.09E+05 p/s; Injection site muscle (p/s) (C57BL/6J mice [6]): 2.75E+08 p/s; Kidney (p/s) (C57BL/6J mice [6]): 1.23E+07 p/s; Liver (p/s) (C57BL/6J mice [6]): 1.76E+08 p/s; Lung (p/s) (C57BL/6J mice [6]): 1.24E+06 p/s; Spleen (p/s) (C57BL/6J mice [6]): 6.26E+07 p/s; Whole body (p/s) (C57BL/6J mice [6]): 1.10E+09 p/s"
